Assay results taken from the NIST ThermoML archive (doi:10.1021/je800635g).

Settings: Liquid, Falling or rolling sphere viscometry

Cc1ccc(C)cc1 [1,4-dimethylbenzene]
viscosity [mPa·s]
Settings	313.15 K	333.15 K	353.15 K	373.15 K	393.15 K	413.15 K	433.15 K	453.15 K	473.15 K
100 kPa	0.499	0.409	0.34	0.292	–	–	–	–	–
800 kPa	0.5029	0.412	0.346	0.297	0.254	0.221	0.192	0.168	–
1600 kPa	0.51	0.414	0.35	0.3	0.258	0.223	0.197	0.17	0.159
2400 kPa	0.516	0.417	0.356	0.303	0.262	0.226	0.201	0.172	0.163
3200 kPa	0.521	0.419	0.361	0.305	0.266	0.228	0.206	0.175	0.167

CC(=O)O [acetic acid]
viscosity [mPa·s]
Settings	313.15 K	333.15 K	353.15 K	373.15 K	393.15 K	413.15 K	433.15 K	453.15 K	473.15 K
100 kPa	0.903	0.713	0.574	0.471	–	–	–	–	–
800 kPa	0.91	0.72	0.582	0.478	0.394	0.333	0.281	0.244	–
1600 kPa	0.917	0.727	0.59	0.486	0.402	0.34	0.287	0.251	0.213
2400 kPa	0.924	0.735	0.598	0.494	0.41	0.347	0.294	0.258	0.22
3200 kPa	0.932	0.743	0.605	0.502	0.418	0.354	0.302	0.264	0.226

CCCCCCCCCC [decane]
Settings	viscosity [mPa·s]
313.15 K, 100 kPa	0.7051
323.15 K, 100 kPa	0.6356
333.15 K, 100 kPa	0.5646
333.15 K, 800 kPa	0.5732
333.15 K, 1600 kPa	0.5714
333.15 K, 2400 kPa	0.5756
333.15 K, 3200 kPa	0.5792
343.15 K, 100 kPa	0.5069
353.15 K, 100 kPa	0.4514
363.15 K, 100 kPa	0.4136
373.15 K, 100 kPa	0.3729
373.15 K, 800 kPa	0.3773
373.15 K, 1600 kPa	0.3818
373.15 K, 2400 kPa	0.3851
373.15 K, 3200 kPa	0.3906
393.15 K, 1600 kPa	0.3216
413.15 K, 1600 kPa	0.279
433.15 K, 1600 kPa	0.2328
453.15 K, 1600 kPa	0.2072
473.15 K, 1600 kPa	0.174

Cc1ccccc1 [toluene]
Settings	viscosity [mPa·s]
313.15 K, 100 kPa	0.4651
323.15 K, 100 kPa	0.4158
333.15 K, 100 kPa	0.3758
333.15 K, 800 kPa	0.3839
333.15 K, 1600 kPa	0.3889
333.15 K, 2400 kPa	0.3955
333.15 K, 3200 kPa	0.4008
343.15 K, 100 kPa	0.3428
353.15 K, 100 kPa	0.3137
363.15 K, 100 kPa	0.2901
373.15 K, 100 kPa	0.268
373.15 K, 800 kPa	0.2706
373.15 K, 1600 kPa	0.2742
373.15 K, 2400 kPa	0.278
373.15 K, 3200 kPa	0.2822
393.15 K, 1600 kPa	0.2397
413.15 K, 1600 kPa	0.2058
433.15 K, 1600 kPa	0.1769
453.15 K, 1600 kPa	0.1517
473.15 K, 1600 kPa	0.1353
